Test results published in publication PMC10220285, “Development of an assay pipeline for the discovery of novel small molecule inhibitors of human glutathione peroxidases GPX1 and GPX4” (Redox Biology, 2023).

What was measured:
Type in all cases: biochemical
Conditions in all cases: Fig. 9 pan-selenoprotein inhibitors
human GPX2 = target: T1, human GPX2 (Homo sapiens, UniProt P18283); assay: GPX2 activity assay (follow-up isoform specificity)
T1 construct: made in house
T1 sequence (P18283 1-190): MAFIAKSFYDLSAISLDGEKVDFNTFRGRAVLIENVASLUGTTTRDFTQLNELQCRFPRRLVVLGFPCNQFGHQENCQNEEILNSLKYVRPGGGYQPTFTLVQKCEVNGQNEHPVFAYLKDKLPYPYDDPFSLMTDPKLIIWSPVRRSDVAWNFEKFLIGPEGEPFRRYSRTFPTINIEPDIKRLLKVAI
Protocol: (§1) The compound plates were prepared as described previously. Purified recombinant human GPX1, GPX2, GPX4, GR, and TXNRD1 were produced and purified as previously reported [[48], [49], [50]]. As production of GPX2 was not optimized at the onset of screening, only GPX1 and GPX4 underwent library screening, and GPX2 was used as a follow-up.
(§2) Follow-up and orthogonal assays were run in quadruplicate unless otherwise stated. Assay schemes are illustrated in Fig. 1.
Previous work has shown similarities in the substrate specificities of GPX1 and GPX2, and a more unique substrate profile of GPX4 [8].
The GPX2 isoform of human selenoprotein GPXs is found in epithelial cells and has similar substrate specificity with GPX1, but not as much with GPX4 [8]. Additionally, GPX1 and GPX2 both form homotetramers and share similarities in structural homology, although GPX2 has a much slower turnover rate.

human TXNRD1 = target: T2, human TXNRD1 (Homo sapiens, UniProt Q16881); assay: Thioredoxin reductase 1 (TXNRD1) inhibition assay (selenite reduction)
T2 construct: made in house
T2 sequence (Q16881 1-499 isoform Q16881-5): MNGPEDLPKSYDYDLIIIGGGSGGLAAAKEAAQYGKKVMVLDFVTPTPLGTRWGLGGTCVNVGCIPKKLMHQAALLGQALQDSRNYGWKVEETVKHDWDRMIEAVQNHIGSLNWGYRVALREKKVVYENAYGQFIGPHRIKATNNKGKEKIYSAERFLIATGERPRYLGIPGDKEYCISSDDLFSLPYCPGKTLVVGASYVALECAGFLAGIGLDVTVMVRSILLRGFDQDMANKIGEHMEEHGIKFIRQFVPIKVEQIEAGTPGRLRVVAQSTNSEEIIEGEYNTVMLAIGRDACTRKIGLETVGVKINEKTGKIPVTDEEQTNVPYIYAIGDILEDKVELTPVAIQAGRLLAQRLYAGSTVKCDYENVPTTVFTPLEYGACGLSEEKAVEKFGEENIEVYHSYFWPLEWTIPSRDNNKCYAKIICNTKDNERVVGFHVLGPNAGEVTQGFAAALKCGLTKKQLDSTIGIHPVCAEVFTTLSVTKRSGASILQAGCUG
Protocol: as §1, §2
TXNRD1 activity was assessed using a modified 1536-well TXNRD1 inhibition assay, based upon TXNRD1-catalyzed selenite reduction as previously described (Fig. 1D). […] TE buffer was dispensed into column 1 and 2 as a no-enzyme control. Finally, 1 μL of sodium selenite in TE buffer was dispensed into each well for final concentrations of 90 nM hTXNRD1, 0.4 mM NADPH, and 0.4 mM sodium selenite. The plate was read in a Viewlux multimodal detector in kinetic mode and fluorescence at 340 nm/450 nm was measured every minute for 8 min.
(§3) Percent activity was determined by first calculating delta RFU (decrease in fluorescence between t = 0 and t = 20/30 min in primary GPX, GR counter-screen, and TXNRD1 assays, or increase in fluorescence between t = 0 and t = 20 min in the Monobromobimane GPX endpoint assay), and normalizing enzyme activity using median delta RFU values for DMSO-treated enzyme control, and DMSO-treated no-enzyme controls.
(§4) Compound inhibitory activity in the qHTS assays was determined by plotting dose-response data for each sample and fitting with a four-parameter logistic fit to assess IC50 values, efficacy (maximal response), and AUC (area under the curve), as previously described. Hits were classified by the quality of the concentration-response curves (CRC). Curve classes −1.1 and −1.2 being the highest-confidence actives with complete CRCs and classes −2.1 and −2.2 being lower-confidence actives with incomplete CRCs.

[1] = target: T3, GR (glutathione reductase) (Homo sapiens, UniProt P00390); assay: GR counter-assay
T3 construct: made in house
T3 sequence (P00390 44-522): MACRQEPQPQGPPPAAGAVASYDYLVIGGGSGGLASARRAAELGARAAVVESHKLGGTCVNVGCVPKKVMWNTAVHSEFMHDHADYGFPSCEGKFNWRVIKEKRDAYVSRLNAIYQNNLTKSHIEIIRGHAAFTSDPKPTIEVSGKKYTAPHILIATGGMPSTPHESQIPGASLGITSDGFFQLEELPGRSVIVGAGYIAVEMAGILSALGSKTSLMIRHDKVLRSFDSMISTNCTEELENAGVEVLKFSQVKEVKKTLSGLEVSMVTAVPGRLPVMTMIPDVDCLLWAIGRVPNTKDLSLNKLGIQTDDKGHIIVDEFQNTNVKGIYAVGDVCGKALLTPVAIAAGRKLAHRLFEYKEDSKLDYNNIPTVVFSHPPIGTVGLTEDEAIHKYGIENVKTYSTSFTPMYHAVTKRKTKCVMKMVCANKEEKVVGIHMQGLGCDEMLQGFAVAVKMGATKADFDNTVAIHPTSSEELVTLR
Protocol: as §1, §2
To identify false positive compounds that interfere with the primary assay through inhibition of GR, ‘hits’ from the primary screening were run against a GR counter assay to identify this possible off-target inhibition (Fig. 1C). Briefly, 3 μL enzyme mixture (100 nM GR, 0.01% BSA in TES buffer) was dispensed into columns […] of a 1536-well black medium-binding solid-bottom plates. The no-enzyme control (0.01% BSA in TES buffer) was included in column 1 and 2. Compounds and controls (23 nL) were added to each well with a pin tool (Kalypsys), and the plates were incubated for 30 min before 2 μL of substrate mixture (1 mM GSSG 0.4 mM NADPH in TES buffer) was added to each well and absorbance at 340 nm was measured at t = 0 and t = 20 min using a ViewLux Multimodal detector (PerkinElmer).
as §3, §4

GPX4 = target: T4, GPX4 (Homo sapiens, UniProt P36969); assay: GR-coupled GPX4 activity assay (NADPH fluorescence, CHP substrate)
T4 construct: made in house; host or cells: E. coli
T4 sequence (P36969 1-170 isoform P36969-2): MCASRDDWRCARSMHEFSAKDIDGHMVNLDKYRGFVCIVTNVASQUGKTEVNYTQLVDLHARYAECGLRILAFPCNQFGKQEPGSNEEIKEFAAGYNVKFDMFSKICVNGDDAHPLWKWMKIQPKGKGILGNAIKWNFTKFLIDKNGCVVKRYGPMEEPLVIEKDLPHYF
Protocol: as §1, §2
(§5) To measure GPX activity, assays were performed in 1536-well format in black medium-binding solid-bottom plates (Greiner). These assay conditions were optimized for high-throughput screening from an assay first described by Paglia and Valentine. GPX activity is measured indirectly by coupling the reaction with GR whereby GPX reduces hydroperoxide by oxidizing two GSH to GSSG and the oxidized glutathione is recycled to its reduced state by GR and NADPH (Fig. 1B). The rate of consumption of NADPH is directly proportional to the activity of GPX and can be measured by the decrease in fluorescence at 340 nm/450 nm.
(§6) First, 3 μL of enzyme in TES assay buffer (50 mM Tris-HCl, 2 mM EDTA (pH 7.5), 150 mM NaCl with enzyme [10 nM GPX1, 200 nM GPX4 ] and BSA [0.01%]) was added to columns 3–48 of 1536-well plates using a BioRAPTR Flying Reagent Dispenser (Let's Go Robotics (LGR), Carlsbad, CA). A no-enzyme control (0.01% BSA in TES assay buffer) was added to columns 1–2. Compounds (25 nL, library and DMSO controls) were added to each well with a pin tool (Kalypsys), and the plates were incubated for 30 min at room temperature before 1 μL of master mix (100 nM GR, 1 mM GSH, 0.5 mM NADPH in TES buffer) was added. 1 μL of cumene hydroperoxide (CHP) ([0.5 mM] in 50% EtOH) was then added within 5 min to initiate the reaction. Fluorescence at 340/450 nm was measured using a ViewLux multimodal detector (PerkinElmer, Waltham, MA) at initial t = 0 and endpoint t = 15 min (GPX1) or t = 20 min (GPX4).
(§7) Follow-up confirmation assays were also run in 96-well format using medium binding clear 96-well SpectraPlate microplates (PerkinElmer) and NADPH absorbance at 340 nm was measured every 30 s for 30 min using an Infinite® M Nano (Tecan).
as §3, §4

GPX1 = target: T5, GPX1 (Homo sapiens, UniProt P07203); assay: GR-coupled GPX1 activity assay (NADPH fluorescence, CHP substrate)
T5 construct: made in house; host or cells: E. coli
T5 sequence (P07203 1-203): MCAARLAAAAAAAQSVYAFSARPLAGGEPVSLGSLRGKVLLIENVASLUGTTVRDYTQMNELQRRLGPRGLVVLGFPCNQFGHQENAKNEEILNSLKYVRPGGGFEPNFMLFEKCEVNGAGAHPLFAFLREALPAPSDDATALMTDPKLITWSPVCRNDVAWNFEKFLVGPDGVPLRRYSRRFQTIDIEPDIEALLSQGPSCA
Protocol: as §1, §2, §5, §6, §7, §3, §4

Structure (SMILES): CC(OC(=O)OC1CCCCC1)OC(=O)C1=C(CSc2nnnn2CCN(C)C)CS[C@@H]2[C@H](NC(=O)Cc3csc(N)n3)C(=O)N12 (stereo partly drawn) [SCE-2174]
- inhibition of GPX2 (human GPX2): inhibited all tested selenoproteins
- inhibition of TXNRD1 (human TXNRD1): inhibited all tested selenoproteins
- inhibition of GR [1]: not GR
- inhibition of GPX4 (GPX4): inhibited all tested selenoproteins
- inhibition of GPX1 (GPX1): inhibited all tested selenoproteins

Structure (SMILES): Cc1ccc(NC(=O)N2CCN(c3nc(N)nc4sc(-c5cccnc5)nc34)CC2)cc1 [PI4KIII beta inhibitor 3]
- inhibition of GPX2 (human GPX2): inhibited all tested selenoproteins
- inhibition of TXNRD1 (human TXNRD1): inhibited all tested selenoproteins
- inhibition of GR [1]: not GR
- inhibition of GPX4 (GPX4): inhibited all tested selenoproteins
- inhibition of GPX1 (GPX1): inhibited all tested selenoproteins

Structure (SMILES): CO[C@@]1(NC(=O)C2SC(=C(C(N)=O)C(=O)O)S2)C(=O)N2C(C(=O)O)=C(CSc3nnnn3C)CS[C@@H]21 (stereo partly drawn) [cefotetan sodium]
- inhibition of GPX2 (human GPX2): inhibited all tested selenoproteins
- inhibition of TXNRD1 (human TXNRD1): inhibited all tested selenoproteins
- inhibition of GR [1]: not GR
- inhibition of GPX4 (GPX4): inhibited all tested selenoproteins
- inhibition of GPX1 (GPX1): inhibited all tested selenoproteins
